Measurements as given in patent US8697911B2, “Rho kinase inhibitors” (Boehringer Ingelheim International GmbH, priority 2010, dated 2014).

biological target: T1, ROCKII (1-543) (Homo sapiens (Human), UniProt O75116); test: IMAP Assay (Assay 2); assay type: biochemical; settings: IMAP fluorescence polarization; 100 μM ATP, 1 nM kinase
Protocol: This assay is performed using FAM S6 substrate peptide (Catalogue #R7184) and IMAP FP Screening Express Kit detection reagents from Molecular Devices (Sunnyvale, Calif.) in IMAP kinase reaction buffer (Tris-HCl, pH 7.2, 10 mM MgCl2, 0.05% NaN3, 0.1% phosphate-free BSA) containing 1 mM DTT. Test compounds dissolved in neat DMSO at 0.3 mg/mL are serially diluted 1 to 3 for concentration response in 100% DMSO. The DMSO serial dilutions are further diluted 33.33-fold in kinase reaction buffer, and 10 μL of this buffer dilution is transferred to Corning black 96-well half area NBS plates for a final top concentration of 3 μg/mL in 1% DMSO. 10 μL aliquot of 3 nM ROCKII (1-543) diluted in kinase reaction buffer is added to each assay well for a final concentration of 1 nM kinase. 10 μL of a mixture of 600 nM FAM S6 peptide and 300 μM ATP diluted in kinase reaction buffer is added to each well for a final concentration of 200 nM peptide and 100 μM ATP. The kinase reaction mixture is incubated for 60 minutes at room temperature. Positive controls are reaction mixtures containing no test compound and negative controls (blanks) are reaction mixtures containing no kinase. The kinase reaction is stopped by addition of 60 μL IMAP progressive binding reagent (Catalog #R7284) diluted 400-fold in 1× Binding buffer A. After 30 min of incubation at room temperature, the plates are read for fluorescence polarization on Analyst Plate Reader using Ex 485 nm, Em 530 nm, and FL 505 dichroic minor. The mP signals are converted to percent of control (POC) values using the formula: POC=100*(Signal−BCTRL)÷(PCTRL−BCTRL)
Where Signal is the test well signal, BCTRL is the average of background (negative control) well signals on the plate and PCTRL is the average of positive control well signals on the plate. For the concentration-responsive compounds, POC as a function of test compound concentration is fitted to a 4-parameter logistic equation of the form: Y=A+(B−A)/[1+(x/C)D]
Where A, B, C, and D are fitted parameters (parameter B is fixed at zero POC), and x and y are the independent and dependent variables, respectively. The IC50 is determined as the inflection point parameter, C.
Target sequence in this assay (O75116 1-543, species assumed): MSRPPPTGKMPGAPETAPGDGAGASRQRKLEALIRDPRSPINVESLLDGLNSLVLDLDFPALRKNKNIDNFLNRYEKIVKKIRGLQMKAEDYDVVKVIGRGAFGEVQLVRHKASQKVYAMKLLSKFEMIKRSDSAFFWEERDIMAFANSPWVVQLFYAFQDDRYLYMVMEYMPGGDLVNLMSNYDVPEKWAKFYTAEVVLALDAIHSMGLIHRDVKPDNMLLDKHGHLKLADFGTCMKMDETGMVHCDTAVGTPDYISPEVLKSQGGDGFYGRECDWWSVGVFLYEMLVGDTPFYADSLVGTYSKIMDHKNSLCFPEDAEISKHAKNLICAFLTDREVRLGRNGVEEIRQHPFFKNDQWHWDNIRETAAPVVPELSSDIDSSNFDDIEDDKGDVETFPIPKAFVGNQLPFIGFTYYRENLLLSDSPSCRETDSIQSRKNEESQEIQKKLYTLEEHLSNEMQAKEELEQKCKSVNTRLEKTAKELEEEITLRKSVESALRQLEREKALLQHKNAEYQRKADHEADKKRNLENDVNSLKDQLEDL

| Structure (SMILES) | IC50 [nM] |
| --- | --- |
| CN1CCc2ccc(NC(=O)c3cccc(CNC(=O)c4ccc(-c5cn[nH]c5)s4)c3)cc2C1 [compound 78, 5-(1H-pyrazol-4-yl)-thiophene-2-carboxylic acid 3-(2-methyl-1,2,3,4-tetrahydro-isoquinolin-7-ylcarbamoyl)-benzylamide] | 0.17 |
| Cc1nnnn1-c1ccc(C(=O)NCc2cccc(C(=O)Nc3nc4c(s3)C[C@@H](N(C)C)CC4)c2)cc1 [compound 104] | 0.43 |
| CN(C)[C@H]1CCc2nc(NC(=O)c3cccc(CNC(=O)c4ccc(-c5cn[nH]c5)s4)c3)sc2C1 [compound 130] | 0.22 |
| Cc1c(C(=O)NCc2cccc(C(=O)Nc3nc4c(s3)C[C@@H](N(C)C)CC4)c2)nnn1-c1nonc1N [compound 142] | 0.33 |
| CN(C)[C@H]1CCc2nc(NC(=O)c3cccc(CNC(=O)c4ccc(-c5ccncc5)cc4)c3)sc2C1 [compound 106] | 0.22 |
| CN(C)[C@H]1CCc2nc(NC(=O)c3cccc(CNC(=O)c4nnn(-c5nonc5N)c4-c4ccccc4)c3)sc2C1 [compound 138] | 0.21 |
| CN(C)[C@H]1CCc2nc(NC(=O)c3cccc(CNC(=O)c4ccc(-c5cnco5)s4)c3)sc2C1 [compound 128] | 0.37 |
| N[C@@H]1CCc2nc(NC(=O)c3cccc(CNC(=O)c4csc(-c5ccncc5)n4)c3)sc2C1 [compound 32] | 4.8 |
| CN1CCc2ccc(NC(=O)c3cccc(CNC(=O)c4cc5ccc(C(N)=O)cc5n4C)c3)cc2C1 [compound 84] | 0.26 |
| CN(C)[C@H]1CCc2nc(NC(=O)c3cccc(CNC(=O)c4cccc(-c5cn[nH]c5)c4)c3)sc2C1 [compound 132] | 0.32 |
| CN(C)[C@H]1CCc2nc(NC(=O)c3cccc(CNC(=O)c4ccc(-c5cnco5)cc4)c3)sc2C1 [compound 136] | 0.2 |
| CN(C)[C@H]1CCc2nc(NC(=O)c3cccc(CNC(=O)c4csc(-c5cccnc5)n4)c3)sc2C1 [compound 108] | 0.32 |
| CN1CCc2nc(NC(=O)c3cccc(CNC(=O)c4ccc(-c5ccncc5)cc4)c3)sc2C1 [compound 56] | 0.26 |
| CN1CCc2nc(NC(=O)c3cccc(CNC(=O)c4ccc5cc(O)ccc5c4)c3)sc2C1 [compound 20] | 0.39 |
| CN(C)[C@H]1CCc2nc(NC(=O)c3cccc(CNC(=O)c4csc(-c5ccncc5)n4)c3)sc2C1 [compound 140] | 0.87 |
| CN1CCc2nc(NC(=O)c3cccc(CNC(=O)c4ccc(-c5cnco5)cc4)c3)sc2C1 [compound 12] | 0.21 |
| CN1CCc2nc(NC(=O)c3cccc(CNC(=O)c4ccc(-n5ccnc5)cc4)c3)sc2C1 [compound 2] | 1.9 |
| CN(C)[C@H]1CCc2nc(NC(=O)c3cccc(CNC(=O)c4ccc(-n5ccnc5)cc4)c3)sc2C1 [compound 134] | 0.24 |
| CN1CCc2nc(NC(=O)c3cccc(CNC(=O)c4ccc(-c5cnco5)s4)c3)sc2C1 [compound 114] | 0.45 |
| CN(C)[C@H]1CCc2nc(NC(=O)c3cccc(CNC(=O)c4ccc(-c5ccncc5)s4)c3)sc2C1 [compound 126] | 0.27 |
| CN1CCc2nc(NC(=O)c3cccc(CNC(=O)c4ccc(-c5ccncc5)s4)c3)sc2C1 [compound 112] | 0.18 |
| CN1CCc2nc(NC(=O)c3cccc(CNC(=O)c4ccc(-c5cn[nH]c5)s4)c3)sc2C1 [compound 120] | 0.77 |
| CN1CCc2ccc(NC(=O)c3cccc(CNC(=O)c4ccc(-c5ccncc5)s4)c3)cc2C1 [compound 70] | 0.25 |
| CN(C)[C@H]1CCc2nc(NC(=O)c3cccc(CNC(=O)c4cn5ccc(C#N)cc5n4)c3)sc2C1 [compound 98] | 0.27 |

Further lines, results first:

| IC50 [nM] | Structure (SMILES) |
| --- | --- |
| 0.87 | N#Cc1ccc2cc(C(=O)NCc3cccc(C(=O)Nc4nc5c(s4)C[C@@H](N4CCOCC4)CC5)c3)[nH]c2c1 [compound 176] |
| 0.37 | Cc1nc(-c2ccncc2)sc1C(=O)NCc1cccc(C(=O)Nc2nc3c(s2)C[C@@H](N2CCOCC2)CC3)c1 [compound 168] |
| 0.41 | O=C(NCc1cccc(C(=O)Nc2nc3c(s2)C[C@@H](N2CCOCC2)CC3)c1)c1cccc(-c2cn[nH]c2)c1 [compound 170] |
| 0.52 | N#Cc1ccn2cc(C(=O)NCc3cccc(C(=O)Nc4nc5c(s4)C[C@@H](N4CCOCC4)CC5)c3)nc2c1 [compound 148] |
| 0.35 | Cc1nnnn1-c1ccc(C(=O)NCc2cccc(C(=O)Nc3nc4c(s3)C[C@@H](N3CCOCC3)CC4)c2)cc1 [compound 174] |
| 0.25 | Cc1nc(-c2ccncc2)sc1C(=O)NCc1cccc(C(=O)Nc2nc3c(s2)C[C@@H](N(C)C)CC3)c1 [compound 205] |
| 0.43 | O=C(NCc1cccc(C(=O)Nc2nc3c(s2)C[C@@H](N2CCOCC2)CC3)c1)c1ccc(-c2cnco2)cc1 [compound 162] |
| 0.34 | O=C(Nc1nc2c(s1)C[C@@H](N1CCOCC1)CC2)c1cccc(CNC(=O)c2cc(-c3ccncc3)[nH]n2)c1 [compound 166] |
| 34 | CN1CCc2ccc(NC(=O)c3cccc(CNC(=O)N4CCc5c(C#N)cccc54)c3)cc2C1 [compound 201, 4-cyano-2,3-dihydro-indole-1-carboxylic acid 3-(2-methyl-1,2,3,4-tetrahydro-isoquinolin-7-ylcarbamoyl)-benzylamide] |
| 72 | CN1CCc2ccc(NC(=O)c3cccc(CNC(=O)c4nc(-c5cccnc5)cs4)c3)cc2C1 [compound 202] |
| 0.73 | O=C(Nc1nc2c(s1)C[C@@H](N1CCOCC1)CC2)c1cccc(CNC(=O)c2csc(-c3cccnc3)n2)c1 [compound 146] |
| 0.38 | O=C(NCc1cccc(C(=O)Nc2nc3c(s2)C[C@@H](N2CCOCC2)CC3)c1)c1ccc(-n2ccnc2)cc1 [compound 172] |
| 3.7 | CN1CCc2nc(NC(=O)c3cccc(CNC(=O)c4cn5cc(C(N)=O)ccc5n4)c3)sc2C1 [compound 209] |
| 0.93 | O=C(Nc1nc2c(s1)C[C@@H](N1CCOCC1)CC2)c1cccc(CNC(=O)c2csc(-c3ccncc3)n2)c1 [compound 164] |
| 2.65 | Nc1nonc1-n1nnc(C(=O)NCc2cccc(C(=O)Nc3nc4c(s3)C[C@@H](N3CCOCC3)CC4)c2)c1-c1ccccc1 [compound 150] |
| 0.2 | CN(C)[C@H]1CCc2nc(NC(=O)c3cccc(CNC(=O)c4cc(-c5ccncc5)[nH]n4)c3)sc2C1 [compound 207] |

biological target: T1, ROCKII (1-543); test: Luciferin-Luciferase Assay (Assay 1); assay type: biochemical; settings: luciferin-luciferase residual ATP; 750 nM ATP, 7.5 nM kinase
Protocol: 1. Luciferin-Luciferase Assay
The activity of ROCKII (1-543) kinase is measured utilizing Cambrex PKLight ATP Detection Reagent, a homogeneous assay technology using luciferin-luciferase to quantify residual ATP. The assay is performed in 384-well low-volume, white, non-binding surface microtiter plates (Corning). The assay buffer is 25 mM HEPES, pH 7.5, 10 mM MgCl2, 50 mM KCl, 0.2% BSA, 0.01% CHAPS, 100 μM Na3VO4 and 0.5 mM DTT. Test compounds, dissolved in neat DMSO at 500 μg/mL, are serially diluted for dose response for a final starting concentration of 3 μg/mL in 1% DMSO of assay buffer. ROCKII (1-543) (62,408 Da) is diluted in assay buffer to a final concentration of 7.5 nM in a total volume of 15 μL. Positive controls are reaction mixtures containing no test compound; negative controls (blanks) are reaction mixtures containing no kinase. After 15 minutes of pre-incubation of the test compounds with the kinase, a mixture of ATP and peptide substrate ([…]) in assay buffer is added to each well for a final concentration of 750 nM ATP and 500 nM peptide, respectively. After 90 minutes of incubation of the kinase reaction at 28° C. temperature, 10 μL of PKLight ATP Detection Reagent (warmed to room temperature previously) is added to each well. The assay plate is incubated at room temperature for additional 15 minutes and then read on an Analyst in luminescence mode. Dose-response experiments for each of the test compounds are conducted in quadruplet. IC50 values of test compounds represent 50% response of the positive control from the dose-response curve.
Target sequence in this assay (O75116 1-543): as the sequence (O75116 1-543, species assumed) above

| Structure (SMILES) | IC50 [nM] |
| --- | --- |
| CN1CCc2nc(NC(=O)c3cccc(CNC(=O)c4ccc(-c5cccnc5)s4)c3)sc2C1 [compound 110] | 15.5 |
| CCn1c(C(=O)NCc2cccc(C(=O)Nc3ccc4c(c3)CN(C)CC4)c2)cc2cc(C#N)ccc21 [compound 102] | 47 |
| CN1CCc2ccc(NC(=O)c3cccc(CNC(=O)c4cn5cc(C#N)ccc5n4)c3)cc2C1 [compound 48] | 35.5 |
| Cc1nnnn1-c1ccc(C(=O)NCc2cccc(C(=O)Nc3ccc4c(c3)CN(C)CC4)c2)cc1 [compound 37] | 43.5 |
| N[C@@H]1CCc2nc(NC(=O)c3cccc(CNC(=O)c4ccc(-c5csnn5)cc4)c3)sc2C1 [compound 24] | 14.3 |
| CN1CCc2ccc(NC(=O)c3cccc(CNC(=O)c4cc5cccc(O)c5cc4O)c3)cc2C1 [compound 133] | 80 |
| CN1CCc2ccc(NC(=O)c3cccc(CNC(=O)C4=NC5=CC=NC(=O)C5C=C4)c3)cc2C1 (stereo not shown) [compound 122] | 27.5 |

Results, then the compound that gave them:

| IC50 [nM] | Structure (SMILES) |
| --- | --- |
| 86 | CCN1C(=O)CSc2ccc(C(=O)NCc3cccc(C(=O)Nc4ccc5c(c4)CN(C)CC5)c3)cc21 [compound 210] |
| 49.3 | CN1CCc2ccc(NC(=O)c3cccc(CNC(=O)c4ccc(-c5nnco5)cc4)c3)cc2C1 [compound 145] |
